Laboratory results reported in patent US20020086278A1, “CHROMOGENIC MEDIA CONTAINING BLOOD OR HEMIN” (priority 1999, published 2002).
Like-named read-outs stand apart in the source and are kept apart here.

Key:
Assay type in all cases: cell-based
[1] = tested on: Aeromonas hydrophilia (aehy); assay: Example 3: colony color on chromogenic TSA II with 5% sheep blood (chromogen in medium); conditions: CO2, 21 h
[2] = tested on: Branhamella catarrhalis (brca); assay: as above; conditions: CO2, 21 h
Candida albicans (caal) = assay: as above; conditions: caal 10231, 24 h
[3] = tested on: Citrobacter freundii (cifr); assay: as above; conditions: CO2, 21 h
[4] = tested on: Entercoccus faecalis (enfa); assay: as above
E. faecium (enfu) = assay: as above; conditions: enfu 49032, 21 h
[5] = tested on: E. coli (non-O157) (esco)
[6] = tested on: Klebsiella pneumoniae (klpn); assay: Example 3: colony color on chromogenic TSA II with 5% sheep blood (chromogen in medium)
[7] = tested on: Pseudomonas aeruginosa (psae); assay: as above; conditions: CO2, 21 h
Salmonella spp. (sasp) = conditions: CO2, 21 h
[8] = tested on: Serratia marcescens (sema); assay: Example 3: colony color on chromogenic TSA II with 5% sheep blood (chromogen in medium); conditions: sema 13880; CO2; 21 h
[9] = tested on: Streptococcus agalactiae (stag); assay: as above
[10] = tested on: Staphylococcus aureus (stau); assay: as above
[11] = tested on: Staphylococcus Coag Neg (step); assay: as above; conditions: 21 h
S. milleri (stmi) = assay: as above; conditions: stmi 6249, 21 h
S. pneumoniae (stpn) = assay: as above
S pyogenes (stpy) = assay: as above; conditions: 21 h
cakr 34135 = assay: as above; conditions: CO2, 21 h
milu 9341 = assay: as above; conditions: CO2, 21 h
55 strains = assay: Example 3: color, hemolytic activity and growth over all 55 strains; conditions: some strains
Text: Steers, E. et al., Antibiot.

NC1CCCCC1.O=C(O)[C@H]1O[C@@H](Oc2c[nH]c3cc(Cl)ccc23)[C@H](O)[C@@H](O)[C@@H]1O [Sal-Glucuro, 6-Cl-3-indolyl-β-D-glucuronide (CHA salt)]
Colony Color ([1]; aehy 7965): 0
Colony Color ([1]; aehy 7966): 0
Colony Color ([1]; aehy 49847): 0
Colony Color ([2]; brca 25238): 0
Colony Color ([2]; brca 25240): 0
Colony Color (Candida albicans (caal); CO2): 0
Colony Color (Candida albicans (caal); air): 0
Colony Color ([3]; cifr 8454): 0
Colony Color ([3]; cifr 33128): 0
Colony Color ([4]; enfa 597, CO2, 21 h): 0
Colony Color ([4]; enfa 597, air, 21 h): 0
Colony Color ([4]; enfa 10741, CO2, 21 h): 0
Colony Color ([4]; enfa 10741, air, 21 h): 0
Colony Color ([4]; enfa 12953, CO2, 21 h): 0
Colony Color ([4]; enfa 12953, air, 21 h): 0
Colony Color ([4]; enfa 14506, CO2, 21 h): 0
Colony Color ([4]; enfa 14506, air, 21 h): 0
Colony Color ([4]; enfa 29212, CO2, 21 h): 0
Colony Color ([4]; enfa 29212, CO2, 24 h): 0
Colony Color ([4]; enfa 29212, air, 21 h): 0
Colony Color ([4]; enfa 29212, air, 24 h): 0
Colony Color (E. faecium (enfu); CO2): 0
Colony Color (E. faecium (enfu); air): 0
Colony Color ([5]; esco 11775, CO2, 21 h): 0
Colony Color ([5]; esco 25922, CO2, 24 h): 0
Colony Color ([5]; esco 25922, air, 24 h): 0
Colony Color ([5]; esco 33605, CO2, 21 h): 0
Colony Color ([6]; klpn 13883, CO2, 21 h): 0
Colony Color ([6]; klpn 33495, CO2, 24 h): 0
Colony Color ([6]; klpn 33495, air, 24 h): 0
Colony Color ([6]; klpn 33606, CO2, 21 h): 0
Colony Color ([7]; psae 9027): 0
Colony Color ([7]; psae 15442): 0
Colony Color ([7]; psae 33607): 0
Colony Color (Salmonella spp. (sasp); saty 19430): 0
Colony Color (Salmonella spp. (sasp); satym 14028): 0
Colony Color [8]: 0
Colony Color ([9]; stag 4768, CO2, 21 h): 0
Colony Color ([9]; stag 4768, air, 21 h): 0
Colony Color ([9]; stag 12386, CO2, 21 h): 0
Colony Color ([9]; stag 12386, CO2, 24 h): gp
Colony Color ([9]; stag 12386, air, 24 h): gp
Colony Color ([10]; stau 1006, CO2, 21 h): 0
Colony Color ([10]; stau 1007, CO2, 21 h): 0
Colony Color ([10]; stau 1008, CO2, 21 h): 0
Colony Color ([10]; stau 1009, CO2, 21 h): 0
Colony Color ([10]; stau 25923, CO2, 24 h): 0
Colony Color ([10]; stau 25923, air, 24 h): 0
Colony Color ([11]; step 12228, CO2): 0
Colony Color ([11]; step 12228, air): 0
Colony Color ([11]; step cdc1, CO2): 0
Colony Color ([11]; step cdc1, air): 0
Colony Color ([11]; step cdc2, CO2): 0
Colony Color ([11]; step cdc2, air): 0
Colony Color ([11]; step cdc3, CO2): 0
Colony Color ([11]; step cdc3, air): 0
Colony Color ([11]; step cdc4, CO2): 0
Colony Color ([11]; step cdc4, air): 0
Colony Color (S. milleri (stmi); CO2): 0
Colony Color (S. milleri (stmi); air): 0
Colony Color (S. pneumoniae (stpn); stpn 1259, CO2, 21 h): 0
Colony Color (S. pneumoniae (stpn); stpn 1260, CO2, 21 h): 0
Colony Color (S. pneumoniae (stpn); stpn 1628, CO2, 21 h): 0
Colony Color (S. pneumoniae (stpn); stpn 6303, CO2, 24 h): 0
Colony Color (S. pneumoniae (stpn); stpn 6303, air, 24 h): 0
Colony Color (S. pneumoniae (stpn); stpn 6305, CO2, 24 h): 0
Colony Color (S. pneumoniae (stpn); stpn 6305, air, 24 h): 0
Colony Color (S pyogenes (stpy); stpy 1027, CO2): 0
Colony Color (S pyogenes (stpy); stpy 1028, CO2): 0
Colony Color (S pyogenes (stpy); stpy 1029, CO2): 0
Colony Color (S pyogenes (stpy); stpy 1030, CO2): 0
Colony Color (S pyogenes (stpy); stpy 19615, CO2): 0
Colony Color (S pyogenes (stpy); stpy 19615, air): 0
Colony Color (S pyogenes (stpy); stpy 49117, CO2): 0
Colony Color (S pyogenes (stpy); stpy 49117, air): 0
Colony Color (S pyogenes (stpy); stpy 51339, CO2): 0
Colony Color (S pyogenes (stpy); stpy 51339, air): 0
Colony Color (cakr 34135): 0
Colony Color (milu 9341): 0

CC(C)S[C@@H]1O[C@H](CO)[C@H](O)[C@H](O)[C@H]1O [IPTG, Isopropyl-β-D-thiogalactopyranoside]
Effect on reactivity with X-gal (55 strains): reduce the reactivity
